How the values were obtained:
[1] = tested on: sodium currents of cortical neurons; experiment: Inhibition of sodium currents in cortical neurons (whole cell patch clamp); type: cell-based; settings: embryonic Wistar rat cortical neurons, preconditioning −50 mV (half maximal steady-state condition); read-out: IC50 (Vhalf)
Method: Cell Preparation and culturing: cortical neurons were prepared from embryonic Wistar rats (E17-E19). Brains of E17/E19 rats were removed and placed in ice-cold Hank's solution (Hank's solution (Life tech.14170-088)+glucose 30%+Pen-Strep 100× (Life Tech. 15140-122) 100 U-100 μg/ml and Hepes-NaOH 5 mM).
Cortex were isolated, cut in small parts and washed twice with Hank's solution. The solution was removed except 1-2 ml and the tissue was mechanically dissociated. After the mechanical dissociation, 5 ml of complete DMEM (Dulbecco's modified Eagle medium) (Gibco 41966-029)+FBS (Hyclone) 10%+Glutamine (Life Tech. 25030-024) 2 mM+Pen-Strep 100 U-100 μg/ml were added, and cell suspension was centrifuged for 5 min at 1000 rpm. Supernatant was removed and 5 ml of complete Neurobasal medium was added (Neurobasal medium (Life tech. 21103-049)+B27 (Life tech. 17504-044) 2%+Glutamine 2 mM+Pen-Strep 100 U-100 μg/ml)
Cells were counted and diluted in Neurobasal medium to a concentration of 400000 cells per poly-D-lysine 5 μg/ml treated Petri dish. […]
Whole Cell Patch Clamp Recordings: Experiments on cortical neurons were carried out using standard whole cell patch clamp methods (Hamill et al., 1981). Membrane currents were recorded and filtered at 5 kHz with an Axon Axopatch 200B amplifier and data digitized with an Axon Digidata 1322A (Axon Instruments, CA, USA). […]

[2] = tested on: chronic constriction injury model in the rat; experiment: Bennett model of neuropathic pain in rats (cold allodynia); type: in vivo; settings: AUD of cold allodynia as percent inhibition of vehicle control
Method: Effects on neuropathic pain are tested in the chronic constriction injury model in the rat (Bennett, G. J. and Xie, Y. K., A peripheral mononeuropathy in rat that produces disorders of pain sensation like those seen in man, Pain, 33 (1988) 87-107). Under pentobarbital anesthesia (Nembutal, 50 mg/kg, i.p.), unilateral multiple ligations are performed on male Sprague-Dawley rats (140-160 g) at the right common sciatic nerve. The sciatic nerve is exposed by blunt dissection at the level of mid-thigh and four loose ligatures (5-0 chromic catgut) are placed around the nerve taking care not to interrupt the epineural circulation. After operation, animals are allowed to recover for one week. Animals develop a cold allodynia which is stable for at least five weeks. […] The animals, randomly assigned to groups of 10 for each test dose and vehicle, are observed for periods of 2 minutes before and after application of test compound and the number of brisk withdrawal reactions is counted. […] Percent maximal possible effect (% MPE) and standard error of the mean (SEM) of each time point is determined with the pre-test value used as […]. The area under the data (AUD) is calculated for the observation period and expressed as percent inhibition of vehicle control as shown in Table 8. Significance is calculated by paired t-test on the percent AUD values.

[3] = tested on: TTXs sodium channels; experiment: TTXs-sodium channel influx assay (membrane potential fluorescence); type: cell-based, rat; settings: ND7/23 cells, veratridine 100 μM
Method: ND7/23 rat dorsal root ganglion-derived cell line endogenously expresses a mixed population of TTXs sodium channels (such as Nav1.3, Nav1.2, Nav1.1, Nav1.6). These cells lack of TTXr sodium channels as shown by the absence of their respective transcripts. ND7/23 cells were grown in DMEM supplemented with 10% FBS and 1 mM sodium piruvate.
The cells were seeded at 50,000 cells/well on 96 poly-L-lysine-coated plates and further incubated for 18-24 h before use.
The Membrane Potential Kit Assay (Molecular Devices), based on a negatively charged fluorescent dye able to monitor changes in membrane potential caused by the sodium influx due to the channel opening, was used for the assay.
Cells were incubated with the dye loading for 30 minutes at 25° C. Then, 100 nM of the toxin Anemonia sulcata (used as enhancer of the channel opener response) alone or in the presence of TTX (as reference standard) or test compound were added for further 15 minutes.
The fluorescence (excitation: 530 nm, emission: 565 nm wavelength) was measured before and after (40-45 s) the automated injection of the sodium channel opener veratridine (100 μM) using a Victor plate reader (Perkin Elmer).
The inhibition curves were calculated from 5 concentrations, each in triplicate, and the IC50 determined using a linear regression analysis.

Row | SMILES | IC50 [1] [µM] | Change vs. Control ([2]; 0.1 mg/kg p.o.) [%] | IC50 [3] [µM] | Change vs. Control ([2]; 1.0 mg/kg p.o.) [%]
1 | CCCCOc1cccc(CCN(CC(=O)N(C)C)CC2CCOC2)c1.Cl (racemic) [Example 96, 2-[[2-(3-Butoxy-phenyl)-ethyl]-(tetrahydrofuran-3-ylmethyl)amino]-N,N-dimethyl-acetamide hydrochloride] | 0.5 | 35.7 | 2 | 
2 | C[C@H](NCc1ccc(OCc2ccccc2F)cc1)C(N)=O [ralfinamide, (S)-(+)-2-[4-(2-fluoro-benzyloxy)-benzylamino]-propanamide, reference compound] | 9 |  | 9.5 | 23.7

From patent US8129427B2, “2-phenylethylamino derivatives as calcium and/or sodium channel modulators” (Newron Pharmaceuticals S.p.A., priority 2005, dated 2012)
